Experimental data as given in ChEMBL document CHEMBL3217720, “Identification of an inhibitor of the ubiquitinproteasome system that induces accumulation of polyubiquitinated proteins in the absence of blocking of proteasome function” (Medchemcomm, 2014).
Active and inactive are the calls of the source. The rule behind the calls is not given here.

Key:
CLL = test: (§1) Cytotoxicity against human CLL cells after 3 days by FMCA method; format: functional, cell-based
Cancer cell lines = test: (§2) Cytotoxicity against human Colon cancer cells after 3 days by FMCA method; format: functional, cell-based
Homo sapiens = species: Homo sapiens; test: (§3) Cytotoxicity against human Pseudomyxoma peritonei cells after 3 days by FMCA method; format: functional, cell-based
[1] = target: T1, 26S proteasome (Homo sapiens) (UniProt Q99460+P49721+P20618+P28074+P28062+P28065+P28072+O00487+P25786+P25787+P25788+P25789+P28066+P60900+O14818+Q8TAA3+P40306+A5LHX3+P49720+P28070+Q99436+Q16186+P35998+P62191+P43686+P62333+P17980+P62195+Q13200+O43242+O00232+O00231+Q15008+P51665+Q9UNM6+P55036+P48556+P60896); settings: MelJuSo UbG76V-YFP, 0.1 uM
Description: Inhibition of 20S proteasome in human MelJuSo UbG76V-YFP cells assessed as accumulation of K48-linked poly-ubiquitinated proteins at 0.1 uM after 6 hrs by immunoblot method

[2] = target: T1, 26S proteasome (Homo sapiens); settings: MelJuSo UbG76V-YFP, 0.1 uM; remark: listed apart in the source
Description: Inhibition of 20S proteasome in human MelJuSo UbG76V-YFP cells assessed as accumulation of UbG76V-YFP protein at 0.1 uM after 6 hrs by immunoblot method

[3] = as §1; format: functional, cell-based; settings: 72 h
[4] = as §2; format: functional, cell-based; settings: Cancer cell lines, 72 h
[5] = as §3; format: functional, cell-based; settings: 72 h
[6] = Cytotoxicity against human MelJuSo cells after 3 days by FMCA method; format: functional, cell-based; settings: MEL-JUSO, 72 h
HCT-116 = test: Cytotoxicity against human HCT116 cells after 3 days by FMCA method; format: functional, cell-based; settings: HCT-116, 72 h
HL-60 = test: Cytotoxicity against human HL60 cells after 3 days by FMCA method; format: functional, cell-based; settings: HL-60, 72 h
Kasumi 1 = test: Cytotoxicity against human Kasumi-1 cells after 3 days by FMCA method; format: functional, cell-based; settings: Kasumi 1, 72 h
CCRF-CEM = test: Cytotoxicity against human CCRF-CEM cells after 3 days by FMCA method; format: functional, cell-based; settings: 72 h
[7] = Cytotoxicity against human NCI-H929 cells after 3 days by FMCA method; format: functional, cell-based; settings: NCI-H929, 72 h
[8] = Cytotoxicity against human 8226/DOX40 cells after 3 days by FMCA method; format: functional, cell-based; settings: 72 h
[9] = Cytotoxicity against human RPMI18226 cells after 3 days by FMCA method; format: functional, cell-based; settings: RPMI18226, 72 h
MelJuSo UbG76V-YFP [10] = test: Inhibition of Ubiquitin-proteasome system in human MelJuSo UbG76V-YFP cells assessed as Hmox-1 accumulation 5 to 10 uM after 18 hrs by immunoblot method; format: cell-based
MelJuSo UbG76V-YFP [11] = test: Inhibition of Ubiquitin-proteasome system in human MelJuSo UbG76V-YFP cells assessed as HSP70B' accumulation 5 to 10 uM after 18 hrs by immunoblot method; format: cell-based
MelJuSo UbG76V-YFP [12] = test: Inhibition of Ubiquitin-proteasome system in human MelJuSo UbG76V-YFP cells assessed as accumulation of UbG76V-YFP protein at 5 to 10 uM after 18 hrs by immunoblot method; format: cell-based
MelJuSo UbG76V-YFP [13] = test: Inhibition of Ubiquitin-proteasome system in human MelJuSo UbG76V-YFP cells assessed as accumulation of K48-linked poly-ubiquitinated proteins at 5 to 10 uM after 18 hrs by immunoblot method; format: cell-based
MelJuSo UbG76V-YFP [14] = test: Inhibition of Ubiquitin-proteasome system in human MelJuSo UbG76V-YFP cells assessed as HSP70B' accumulation 50 uM after 18 hrs by immunoblot method; format: cell-based
MelJuSo UbG76V-YFP [15] = test: Inhibition of Ubiquitin-proteasome system in human MelJuSo UbG76V-YFP cells assessed as HSP70B' accumulation 5 to 20 uM after 18 hrs by immunoblot method; format: cell-based
MelJuSo UbG76V-YFP [16] = test: Inhibition of Ubiquitin-proteasome system in human MelJuSo UbG76V-YFP cells assessed as p21 accumulation 20 to 50 uM after 18 hrs by immunoblot method; format: cell-based
MelJuSo UbG76V-YFP [17] = test: Inhibition of Ubiquitin-proteasome system in human MelJuSo UbG76V-YFP cells assessed as accumulation of UbG76V-YFP protein at 50 uM after 18 hrs by immunoblot method; format: cell-based
MelJuSo UbG76V-YFP [18] = test: Inhibition of Ubiquitin-proteasome system in human MelJuSo UbG76V-YFP cells assessed as accumulation of K48-linked poly-ubiquitinated proteins at 5 to 100 uM after 18 hrs by immunoblot method; format: cell-based
[19] = target: T1, 26S proteasome (Homo sapiens); test: Inhibition of erythrocyte 20S proteasome (unknown origin) assessed as inhibition of chymotrypsin activity at 50 uM after 15 mins using Suc-LLVY-AMC substrate by fluorescence assay; format: protein-complex assay
[20] = target: T1, 26S proteasome (Homo sapiens); test: Inhibition of erythrocyte 20S proteasome (unknown origin) assessed as inhibition of chymotrypsin activity at 10 uM after 15 mins using Suc-LLVY-AMC substrate by fluorescence assay; format: protein-complex assay
MelJuSo UbG76V-YFP [21] = test: Inhibition of Ubiquitin-proteasome system in human MelJuSo UbG76V-YFP cells assessed as accumulation of K48-linked poly-ubiquitinated proteins at 10 uM after 18 hrs by immunoblot method; format: cell-based
MelJuSo UbG76V-YFP [22] = test: Inhibition of Ubiquitin-proteasome system in human MelJuSo UbG76V-YFP cells assessed as accumulation of UbG76V-YFP protein at 5 uM after 18 hrs by immunoblot method; format: cell-based
MelJuSo UbG76V-YFP [23] = test: Inhibition of Ubiquitin-proteasome system in human MelJuSo UbG76V-YFP cells assessed as accumulation of K48-linked poly-ubiquitinated proteins at 5 uM by immunoblot method; format: cell-based
MelJuSo UbG76V-YFP [24] = test: Inhibition of Ubiquitin-proteasome system in human MelJuSo UbG76V-YFP cells assessed as accumulation of UbG76V-YFP protein at 5 uM; format: cell-based
HEK293 = test: Inhibition of Ubiquitin-proteasome system in human HEK293 cells assessed as accumulation of ornithine decarboxylase-green fluorescent fusion protein at 5 uM after 16 hrs; format: cell-based

CC(C)C[C@H](NC(=O)[C@H](Cc1ccccc1)NC(=O)c1cnccn1)B(O)O
inhibition (CLL): Active
inhibition (Cancer cell lines): Active
inhibition (Homo sapiens): Active
inhibition [1]: Active
inhibition [2]: Active

O=P(Oc1ccccc1)(Oc1ccccc1)OC1C=CS(=O)(=O)C1 (stereo unspecified)
IC50 [3]: 690 nM
IC50 [4]: 1700 nM
IC50 [5]: 510 nM
IC50 [6]: 5400 nM
IC50 (HCT-116): 5800 nM
IC50 (HL-60): 2500 nM
IC50 (Kasumi 1): 1900 nM
IC50 (CCRF-CEM): 1800 nM
IC50 [7]: 610 nM
IC50 [8]: 2800 nM
IC50 [9]: 1300 nM
inhibition (MelJuSo UbG76V-YFP [10]): Active
inhibition (MelJuSo UbG76V-YFP [11]): inactive
inhibition (MelJuSo UbG76V-YFP [12]): inactive
inhibition (MelJuSo UbG76V-YFP [13]): Active
inhibition (MelJuSo UbG76V-YFP [14]): Active
inhibition (MelJuSo UbG76V-YFP [15]): inactive
inhibition (MelJuSo UbG76V-YFP [16]): Active
inhibition (MelJuSo UbG76V-YFP [17]): Active
inhibition (MelJuSo UbG76V-YFP [18]): Active
inhibition [19]: Active
inhibition [20]: inactive
inhibition (MelJuSo UbG76V-YFP [21]): Active
inhibition (MelJuSo UbG76V-YFP [22]): inactive
inhibition (MelJuSo UbG76V-YFP [23]): Active
inhibition (MelJuSo UbG76V-YFP [24]): Active
inhibition (HEK293): Active

COc1cc(/C=C/C(=O)N2CCC=CC2=O)cc(OC)c1OC
inhibition (MelJuSo UbG76V-YFP [11]): inactive

CC1(C)C(N(O)C(=O)Nc2ccc(Cl)cc2)N(c2ccc(Cl)cc2)C(=O)N1CC(=O)N/N=C/C=C/c1ccc([N+](=O)[O-])o1 (stereo unspecified)
inhibition (MelJuSo UbG76V-YFP [10]): Active
inhibition (MelJuSo UbG76V-YFP [11]): inactive
inhibition (MelJuSo UbG76V-YFP [12]): inactive
inhibition (MelJuSo UbG76V-YFP [13]): Active

O=C(CCl)Nc1cccc(NC2=NS(=O)(=O)c3ccccc32)c1
inhibition (MelJuSo UbG76V-YFP [10]): Active
inhibition (MelJuSo UbG76V-YFP [11]): inactive
inhibition (MelJuSo UbG76V-YFP [12]): inactive
inhibition (MelJuSo UbG76V-YFP [13]): Active
